Experimental findings from US20250282770A1, “BIOLUMINESCENT PROBES TO TRACK STEM CELLS IN VIVO” (THE BOARD OF TRUSTEES OF THE UNIVERSITY OF ILLINOIS, priority 2024, published 2025) are described below.

Data set [1] concerns 4T1-Luc tumors. The data set is described as follows: Bioluminescence imaging of heterotopic breast cancer model with AlDeLuc. Format: in vivo, BALB/c mice. The following applies: 0.55 mg/kg retro-orbital. How it is done:
Generation of 4T1-Luc Breast Cancer Model. Female or male BALB/c mice (˜6 weeks old) were inoculated with 4T1-Luc cells (50 μL of 1×10^6 cells in 1:1 v/v serum-free RPMI 1640 media and Matrigel) via subcutaneous injections into each flank. Tumor volumes were measured using the caliper method every three days. Body weight was measured daily over the course of the experiment. After two weeks, the tumor was in the 200 to 400 mm^3 range.
Bioluminescence Imaging of a Heterotopic Breast Cancer Model with AlDeLuc. BALB/c mice bearing 4T1-Luc tumors were anesthetized using isoflurane (1-3% for maintenance; up to 5% for induction) in oxygen from a precision vaporizer. After testing to ensure animals are fully under anesthesia, each mouse was administered a control solution of 1:19 v/v DMSO:PBS via retro-orbital injection. After 40 minutes, the mice were imaged on the IVIS imaging system. Luminescence was collected using an open filter set. ROIs were drawn around both the left and right tumors, and the intensity was calculated using the Living Image Analysis software.
The following day the mice were anesthetized, and administered AlDeLuc (0.55 mg/kg, 1:19 v/v DMSO:PBS). […] Luminescence was collected using an open filter set. ROIs were drawn around both the left and right tumors, and the intensity was calculated using the Living Image Analysis software.

Data set [2] has as its target T1, ALDH4A1 (Homo sapiens, UniProt P30038).
T1 construct: inferred from Ni-NTA purification; made in house; host or cells: E. coli BL21(DE3)
Description: AlDeLuc isoform selectivity assay. Format: biochemical. The following applies: 2 μM, pre-activated with HCl, 60 min room temperature. How it is done:
(§1) Expression and Purification of ALDH Expression constructs for recombinant human ALDH1A1, ALDH1A2, ALDH1A3, and ALDH2, ALDH3A1, ALDH4A1, and ALDH5A1 were generously provided by Prof. Daria Mochly-Rosen (Stanford, Chemical and Systems Biology). E. coli BL21(DE3) cells with transformed with each of the above constructs. Colonies were selected from an agar plate containing […] ampicillin and grown overnight (37° C., 220 rpm) in LB media containing […] ampicillin. The overnight culture (10 mL) was inoculated into 1000 mL LB supplemented with […] ampicillin. When the O.D. reached ˜0.5, IPTG was added to a final concentration of 1 mM and incubated overnight (30° C., 200 rpm, 18 h). The cells were harvested via centrifugation (4° C., 4,000 rpm, 90 min) and the cell pellets were stored at −80° C. until purification.
(§2) ALDH Isoform Activity Determination. The activity of each isoform of ALDH was confirmed by monitoring the production of NADH at 340 nm when incubated with the most used substrate for that enzyme (i.e., benzaldehyde for ALDH3A1 and propionaldehyde for all other isoforms). Each isoform was diluted with 50 mM triethanolamine (TEA, pH 7.4) to a final concentration of 0.5 μM and placed in a 1 mL quartz cuvette. Prior to measurement, NAD^+ was added to a final concentration of 2.5 mM and the preferred substrate was added to a final concentration of 1 mM. Absorbance spectra was taken from 300 to 500 nm every 30 seconds for 15 minutes. Activity for each enzyme was calculated from the slope of absorbance increase at 340 nm over time.
(§3) AlDeLuc Isoform Selectivity Assay. Activation of AlDeLuc was assessed using the necessary amount of enzyme that gave the activity of 0.5 nmol of substrate turned over/minute. All enzymatic reactions were performed in 50 mM triethanolamine (TEA) buffer (pH 7.4) with 2.5 mM NAD^+. To prepare the probe solution, AlDeLuc was dissolved in DMSO and incubated with 1 M HCl. After an hour, this solution was neutralized with 1 M NaOH, and diluted with PBS. To a clear 24-well plate, TEA buffer, NAD^+, the ALDH isoform, and then AlDeLuc (2 μM) were added sequentially to a final volume of 1 mL. After an hour incubation at room temperature, ATP-MgSO4 (45 μL, prepared by mixing 17.78 mM ATP-Mg and 35.56 mM MgSO4 in a 1:1 ratio in PBS buffer) and luciferase (5 μL, 1 mg/mL in PBS containing 10% glycerol) were added to initiate bioluminescence production. The wells were immediately imaged using the IVIS imaging system in open mode. ROIs were drawn around each well and the signal intensity was quantified using the Living Image Analysis. The signal enhancement was normalized relative to the ALDH2 isoform.

For data set [3], the target named is T2, ALDH1A2 (Homo sapiens, UniProt O94788).
T2 construct: inferred from Ni-NTA purification; made in house; host or cells: E. coli BL21(DE3)
Description: AlDeLuc isoform selectivity assay. The following applies: 2 μM, pre-activated with HCl, 60 min room temperature. Format: biochemical. How it is done: as §1, §2, §3

The target of data set [4] is T3, ALDH1A1 (Homo sapiens, UniProt P00352).
T3 construct: inferred from Ni-NTA purification; made in house; host or cells: E. coli BL21(DE3)
T3 sequence (P00352 1-501): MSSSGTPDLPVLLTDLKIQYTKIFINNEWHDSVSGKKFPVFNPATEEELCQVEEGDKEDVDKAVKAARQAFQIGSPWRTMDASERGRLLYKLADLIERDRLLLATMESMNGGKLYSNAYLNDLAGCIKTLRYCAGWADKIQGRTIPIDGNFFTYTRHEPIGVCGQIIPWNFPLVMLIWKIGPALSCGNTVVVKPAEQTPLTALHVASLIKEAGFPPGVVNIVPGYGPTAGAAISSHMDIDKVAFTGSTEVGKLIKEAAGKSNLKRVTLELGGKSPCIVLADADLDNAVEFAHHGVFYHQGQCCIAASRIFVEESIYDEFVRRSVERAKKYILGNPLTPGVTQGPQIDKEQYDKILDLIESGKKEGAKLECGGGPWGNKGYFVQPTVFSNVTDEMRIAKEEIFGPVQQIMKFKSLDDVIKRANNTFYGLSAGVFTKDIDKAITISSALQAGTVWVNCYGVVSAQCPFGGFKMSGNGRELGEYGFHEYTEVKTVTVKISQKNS
Description: AlDeLuc isoform selectivity assay. Format: biochemical. The following applies: 2 μM, pre-activated with HCl, 60 min room temperature. How it is done:
as §1, §2, §3

Data set [5] addresses T4, ALDH3A1 (Homo sapiens, UniProt P30838).
T4 construct: inferred from Ni-NTA purification; made in house; host or cells: E. coli BL21(DE3)
Description: AlDeLuc isoform selectivity assay. As to conditions: 2 μM, pre-activated with HCl, 60 min room temperature. Format: biochemical. How it is done: as §1, §2, §3

Data set [6] deals with T5, ALDH5A1 (Homo sapiens, UniProt P51649).
T5 construct: inferred from Ni-NTA purification; made in house; host or cells: E. coli BL21(DE3)
The data set is described as follows: AlDeLuc isoform selectivity assay. As to conditions: 2 μM, pre-activated with HCl, 60 min room temperature. Format: biochemical. How it is done: as §1, §2, §3

Data set [7] has as its target T6, ALDH2 (Homo sapiens, UniProt P05091).
T6 construct: inferred from Ni-NTA purification; made in house; host or cells: E. coli BL21(DE3)
The data set is described as follows: AlDeLuc isoform selectivity assay. Format: biochemical. The following applies: 2 μM, pre-activated with HCl, 60 min room temperature. How it is done:
as §1, §2, §3

The target of data set [8] is T7, ALDH1A3 (Homo sapiens, UniProt P47895).
T7 construct: inferred from Ni-NTA purification; made in house; host or cells: E. coli BL21(DE3)
The data set is described as follows: AlDeLuc isoform selectivity assay. Format: biochemical. As to conditions: 2 μM, pre-activated with HCl, 60 min room temperature. How it is done: as §1, §2, §3

T7 sequence (P47895 whole entry): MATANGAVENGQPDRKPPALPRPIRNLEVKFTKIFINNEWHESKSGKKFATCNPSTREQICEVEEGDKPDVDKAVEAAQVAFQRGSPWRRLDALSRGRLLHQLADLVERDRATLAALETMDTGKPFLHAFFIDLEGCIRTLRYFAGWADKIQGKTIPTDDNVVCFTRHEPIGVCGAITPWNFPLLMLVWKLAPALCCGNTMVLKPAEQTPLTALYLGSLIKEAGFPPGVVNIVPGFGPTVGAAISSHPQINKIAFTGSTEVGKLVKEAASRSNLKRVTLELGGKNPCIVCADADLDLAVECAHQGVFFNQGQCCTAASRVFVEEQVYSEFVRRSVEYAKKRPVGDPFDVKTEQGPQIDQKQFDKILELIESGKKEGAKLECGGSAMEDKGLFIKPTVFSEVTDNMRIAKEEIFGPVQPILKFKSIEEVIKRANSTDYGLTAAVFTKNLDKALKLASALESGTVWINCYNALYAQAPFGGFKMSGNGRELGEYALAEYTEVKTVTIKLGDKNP
T4 sequence (P30838 whole entry): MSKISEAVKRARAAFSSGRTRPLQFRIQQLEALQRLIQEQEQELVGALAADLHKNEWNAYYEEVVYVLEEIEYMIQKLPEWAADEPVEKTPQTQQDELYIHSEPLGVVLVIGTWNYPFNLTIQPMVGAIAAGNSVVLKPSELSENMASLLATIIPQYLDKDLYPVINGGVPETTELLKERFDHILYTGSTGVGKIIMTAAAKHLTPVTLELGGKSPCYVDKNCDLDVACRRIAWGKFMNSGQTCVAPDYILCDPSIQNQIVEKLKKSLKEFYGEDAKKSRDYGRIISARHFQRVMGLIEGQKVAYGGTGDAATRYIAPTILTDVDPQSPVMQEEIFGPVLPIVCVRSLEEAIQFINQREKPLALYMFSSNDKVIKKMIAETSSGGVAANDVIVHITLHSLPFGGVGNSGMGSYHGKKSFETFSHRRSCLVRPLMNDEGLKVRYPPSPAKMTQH
T5 sequence (P51649 48-535): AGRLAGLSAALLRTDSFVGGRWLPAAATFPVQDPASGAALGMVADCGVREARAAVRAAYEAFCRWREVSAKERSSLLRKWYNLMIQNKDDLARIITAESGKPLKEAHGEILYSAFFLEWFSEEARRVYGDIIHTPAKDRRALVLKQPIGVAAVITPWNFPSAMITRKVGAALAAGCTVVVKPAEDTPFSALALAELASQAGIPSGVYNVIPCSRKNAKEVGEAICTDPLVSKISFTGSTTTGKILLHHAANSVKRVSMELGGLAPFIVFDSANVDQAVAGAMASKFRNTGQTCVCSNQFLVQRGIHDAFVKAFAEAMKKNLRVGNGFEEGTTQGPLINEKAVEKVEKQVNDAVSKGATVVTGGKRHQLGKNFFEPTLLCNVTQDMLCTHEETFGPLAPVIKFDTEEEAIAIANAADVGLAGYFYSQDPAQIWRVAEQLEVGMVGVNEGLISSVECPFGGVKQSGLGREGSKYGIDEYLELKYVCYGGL
T1 sequence (P30038 25-563): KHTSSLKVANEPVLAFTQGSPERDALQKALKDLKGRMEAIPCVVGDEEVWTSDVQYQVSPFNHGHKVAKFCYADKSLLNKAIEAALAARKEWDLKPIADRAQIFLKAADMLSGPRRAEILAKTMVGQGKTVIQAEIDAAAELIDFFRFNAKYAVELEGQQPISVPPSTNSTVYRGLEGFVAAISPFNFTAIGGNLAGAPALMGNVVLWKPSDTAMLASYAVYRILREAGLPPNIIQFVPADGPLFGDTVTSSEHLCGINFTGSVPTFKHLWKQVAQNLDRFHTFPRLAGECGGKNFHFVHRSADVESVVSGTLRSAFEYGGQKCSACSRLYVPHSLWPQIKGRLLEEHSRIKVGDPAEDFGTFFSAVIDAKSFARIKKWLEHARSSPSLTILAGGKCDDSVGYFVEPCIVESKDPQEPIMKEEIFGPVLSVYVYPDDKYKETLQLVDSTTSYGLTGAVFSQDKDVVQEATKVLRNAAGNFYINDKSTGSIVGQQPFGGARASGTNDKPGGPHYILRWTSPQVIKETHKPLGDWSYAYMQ
T6 sequence (P05091 18-517): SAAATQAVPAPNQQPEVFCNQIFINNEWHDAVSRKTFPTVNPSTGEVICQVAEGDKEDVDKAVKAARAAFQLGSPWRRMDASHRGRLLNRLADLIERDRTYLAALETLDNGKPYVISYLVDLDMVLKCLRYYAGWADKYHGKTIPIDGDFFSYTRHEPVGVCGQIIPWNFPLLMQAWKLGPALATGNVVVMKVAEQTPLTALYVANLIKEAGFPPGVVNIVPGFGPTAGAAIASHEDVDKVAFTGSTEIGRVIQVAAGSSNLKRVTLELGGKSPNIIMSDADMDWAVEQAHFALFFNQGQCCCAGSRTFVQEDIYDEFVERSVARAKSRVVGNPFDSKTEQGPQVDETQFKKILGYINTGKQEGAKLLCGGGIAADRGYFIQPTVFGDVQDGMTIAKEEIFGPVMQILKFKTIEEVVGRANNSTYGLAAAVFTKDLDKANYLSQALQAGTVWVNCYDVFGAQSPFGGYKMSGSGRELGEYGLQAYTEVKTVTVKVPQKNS
T2 sequence (O94788 whole entry): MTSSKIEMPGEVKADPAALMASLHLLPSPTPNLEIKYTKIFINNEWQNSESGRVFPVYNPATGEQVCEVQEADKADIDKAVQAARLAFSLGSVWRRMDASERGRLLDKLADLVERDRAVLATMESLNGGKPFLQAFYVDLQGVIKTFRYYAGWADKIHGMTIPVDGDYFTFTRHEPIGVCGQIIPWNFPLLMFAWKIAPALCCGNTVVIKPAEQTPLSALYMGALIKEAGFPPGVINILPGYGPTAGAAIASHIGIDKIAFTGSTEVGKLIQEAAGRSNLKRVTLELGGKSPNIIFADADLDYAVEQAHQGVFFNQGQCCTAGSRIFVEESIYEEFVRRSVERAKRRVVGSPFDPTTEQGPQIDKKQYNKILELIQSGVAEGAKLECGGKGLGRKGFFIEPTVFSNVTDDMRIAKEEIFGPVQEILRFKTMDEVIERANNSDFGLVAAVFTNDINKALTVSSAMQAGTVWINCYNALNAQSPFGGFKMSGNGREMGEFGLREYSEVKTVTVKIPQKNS

Turning to `CCN(CC)c1ccc2nc(C3=N[C@@H](C(OC)OC)CS3)sc2c1` [AlDeLuc, (S)-2-(4-(dimethoxymethyl)-4,5-dihydrothiazol-2-yl)-N,N-diethylbenzo[d]thiazol-6-amine], the “time at which tumor bioluminescence signal plateaued” value in data set [1] (4T1-Luc tumors) amounted to 40 min. For the same compound, the “signal at the 24-hour mark” value in data set [1] (24 hours after administration) is “complete clearance”. In addition, the bioluminescence result is “only treatment with ALDH1A1 and luciferase generated significant bioluminescence” in data set [2]; “only treatment with ALDH1A1 and luciferase generated significant bioluminescence” in data set [3]; “significant bioluminescence” in data set [4]; “only treatment with ALDH1A1 and luciferase generated significant bioluminescence” in data set [5]; “only treatment with ALDH1A1 and luciferase generated significant bioluminescence” in data set [6]; “only treatment with ALDH1A1 and luciferase generated significant bioluminescence” in data set [7]. In addition, the bioluminescence result in data set [8] was “only treatment with ALDH1A1 and luciferase generated significant bioluminescence”.
